Assay [1] has as its system Rattus norvegicus. In words: Antiallodynic effect investigated in chronic sciatic nerve constriction injury rats after 1 hr of 60 mg/kg i.p. administration and value reported as paw withdrawal threshold. Type of assay: functional. The settings on record: route intraperitoneal.
The test system of assay [2] is Rattus norvegicus. In words: Antiallodynic effect investigated in chronic sciatic nerve constriction injury rats before 1 hr of 60 mg/kg i.p. administration and value reported as paw withdrawal threshold. As to conditions: route intraperitoneal. Type of assay: functional.

This note sets out measurements from ChEMBL document CHEMBL1146733, “Effect of gabapentin derivates on mechanical allodynia-like behaviour in a rat model of chronic sciatic constriction injury” (2004).

Structures are written as SMILES.

With `CC(C)C[C@H](CN)CC(=O)OCCCCOC(=O)C[C@H](CN)CC(C)C.Cl.Cl`, the PWT in the assay with Rattus norvegicus [1] turned out to be 8.5 g; in the assay on Rattus norvegicus [2], 4.5 g.
Turning to `CC(C)C[C@@H](CN)CC(=O)OCCCCCOC(=O)CC1(CN)CCCCC1.Cl.Cl` (stereo in doubt; 20030417), the PWT with Rattus norvegicus [1] (60 mg/kg) is listed as 13.8 g; with Rattus norvegicus [2] (60 mg/kg), 2.8 g.
In the case of `CCC(COC(=O)CC1(CN)CCCCC1)OC(=O)C[C@H](CN)CC(C)C.Cl.Cl` (stereo in doubt; 2003415), the PWT with Rattus norvegicus [2] (60 mg/kg) stood at 4.4 g.
Turning to `CC(C)C[C@H](CN)CC(=O)O` [PREGABALIN], the PWT in the assay with Rattus norvegicus [1] amounted to 18.86 g; in the assay with Rattus norvegicus [2] it was 3.43 g.
Take `COc1ccc(C(CN(C)C)C2(OC(=O)CCC(=O)NC34CC5CC(C)(CC(C)(C5)C3)C4)CCCCC2)cc1.Cl.Cl` (configuration not stated): the results for the PWT with Rattus norvegicus [1] and with Rattus norvegicus [2] were 5.6 g and 3.36 g, respectively.
On the same counts, the results for `CC(C)C[C@@H](CN)CC(=O)OCC(C)(C)COC(=O)CC1(CN)CCCCC1.Cl.Cl` are 7.2 g and 4.4 g.
For `NCC1(CC(=O)O)CCCCC1` [GABAPENTIN], in that order: 13.5 g and 2.23 g.
For `CC(C)C[C@H](CNC(=O)CCC(=O)NC[C@@H](CC(=O)O)CC(C)C)CC(=O)O`, in that order: 6 g and 4 g.
Take `CC(C)C[C@H](CN)CC(=O)OCCOC(=O)C[C@H](CN)CC(C)C.Cl.Cl`: the figures for the PWT in the assay with Rattus norvegicus [1] and in the assay with Rattus norvegicus [2] were 7.9 g and 2.9 g, respectively.
On the same counts, the results for `COC(=O)CC1(CN)CCCCC1.Cl` are 22.8 g and 6.4 g.
Take `COc1ccc(C(CN(C)C)C2(O)CCCCC2)cc1` (configuration not stated) [VENLAFAXINE]: the PWT with Rattus norvegicus [1] is 22 g; with Rattus norvegicus [2] it was 2 g.
`CC(C)C[C@@H](CN)CC(=O)OCCCCCOC(=O)CC1(CN)CCCCC1.Cl.Cl` (stereo in doubt; 2003327): the PWT in the assay with Rattus norvegicus [1] (60 mg/kg) came out at 20.67 g; in the assay on Rattus norvegicus [2] (60 mg/kg), 3.33 g.
With `CC(C)C[C@@H](CN)CC(=O)OCCCCOC(=O)CC1(CN)CCCCC1.Cl.Cl`, the PWT is reported as 8.56 g with Rattus norvegicus [1] and 4.17 g in the assay on Rattus norvegicus [2].
`CC(C)C[C@@H](CN)CC(=O)OCCOC(=O)CC1(CN)CCCCC1.Cl.Cl`: the PWT stood at 19 g in the assay on Rattus norvegicus [1] and 3.33 g in the assay on Rattus norvegicus [2].
With `CC(C)C[C@H](CN)CC(=O)OCCCOC(=O)C[C@H](CN)CC(C)C.Cl.Cl`, the PWT is on record as 10.33 g in the assay with Rattus norvegicus [1] and 6 g with Rattus norvegicus [2].
For `Cl.Cl.NCC1(CC(=O)OCCCCOC(=O)CC2(CN)CCCCC2)CCCCC1`, in that order: 5.6 g and 4 g.
On the same counts, the results for `CC(C)C[C@@H](CN)CC(=O)OCCCOC(=O)CC1(CN)CCCCC1.Cl.Cl` are 7.8 g and 3.6 g.
In the case of `CC(C)C[C@H](CNC(=O)CCC(=O)NC12CC3CC(C)(CC(C)(C3)C1)C2)CC(=O)O`, the values for the PWT with Rattus norvegicus [1] and in the assay on Rattus norvegicus [2] were 13.2 g and 3.32 g, respectively.
For `Cl.Cl.NCC1(CC(=O)OCCCOC(=O)CC2(CN)CCCCC2)CCCCC1`, in that order: 19.4 g and 4.8 g.
On the same counts, the results for `COC(=O)C[C@@H](CN)CC(C)C.Cl` are 6.8 g and 5.2 g.
For the molecule `CCC(COC(=O)CC1(CN)CCCCC1)OC(=O)C[C@H](CN)CC(C)C.Cl.Cl` (stereo in doubt; 2003325), the PWT in the assay on Rattus norvegicus [1] is given as 6.8 g; in the assay on Rattus norvegicus [2] (60 mg/kg) it was 4 g.
Regarding `CC(C)C[C@@H](CN)CC(=O)OC(C)CCOC(=O)CC1(CN)CCCCC1.Cl.Cl` (some centres not stated), the values for the PWT in the assay with Rattus norvegicus [1] and in the assay with Rattus norvegicus [2] were 11.4 g and 4 g, respectively.
On the same counts, the results for `Cl.Cl.NCC1(CC(=O)OCCOC(=O)CC2(CN)CCCCC2)CCCCC1` are 18.67 g and 3.4 g.
On the same counts, the results for `CC12CC3CC(C)(C1)CC(N)(C3)C2.Cl` [MEMANTINE HYDROCHLORIDE] are 10.4 g and 2.8 g.
